These are literature values, as cited in patent US7368472B2, “1,2,4-Triaminobenzene derivatives useful for treating disorders of the central nervous system” (priority 2002, dated 2008).

The structures appear in SMILES notation.

In series [1] the test system is amygdala kindling model of complex partial seizures. As to conditions: in vivo.
In another series the test system is hippocampal kindling. The note with it: rat.
In series [2] the test system is kainic acid-induced status epilepticus. The note with it: rat.
Series [3] deals with incidence of seizures in epileptic patients.
In series [4] the test system is electrically induced seizures, seizures induced chemically by pentylenetetrazole, picrotoxin and NMDA, DBA/2 mouse. The note with it: oral and intraperitoneal administration, rats and mice.
For series [5], the system named is K(+) current in neuronal cells.
The test system of series [6] is animal models of anxiety-like behaviour. The note with it: in vivo.

Turning to `CCOC(=O)Nc1ccc(NCc2ccc(F)cc2)cc1N` [Retigabine, N-(2-amino-4-(4-fluorobenzylamino)-phenyl) carbamic acid ethyl ester], in series [1], the “activity in amygdala kindling model” value is listed as “active”. In addition, the “progression of hippocampal kindling” value in the series with hippocampal kindling is reported as “delay the progression of hippocampal kindling”. Also, in series [2], the “neuroprotection after status epilepticus” value was “prevent limbic neurodegeneration and the expression of markers of apoptosis”. Moreover, the “reduction of seizure incidence in clinical trials” value in series [3] is “effectiveness in reducing the incidence of seizures”. For the same compound, the “activity in anticonvulsant tests” value in series [4] is “active”. In addition, the “activation of K(+) current” value in series [5] is reported as “activate a K(+) current”. The “activity in models of anxiety-like behaviour” value in series [6] was “active”.
